# In article PMC8892092 (The Journal of Biological Chemistry, 2022):
# B1: Hydroxynitrile lyase from Linum usitatissimum (LuHNL), N-terminally His-tagged (enzyme)
# chain: MASLPVSFAKPDKNGVITCKAIMLKEAKLPGMSYADTVQIIDIQVDPPQNVELRVKMLCASVCRTDILTIEGFMAPTQFPKINGHEGVGIIESMGPDTKNFKVGDVIVAPTLGECQTCSSCRSGRTNFCQNYGANESALEPDGTSRFSYIDSDGKKKLLYYKLGCSTWTQYMVVDSNYATKLNEIAPELPPPHGSILSCAFATGYGAVWLDAAVQEGDSVAIFGVGSVGISAVIAAKELKAKQIIVVDRNEYKLKMAMELGATHCINSEKLPEGVTPSQAVRKLTPKEVGVDASIESSGYDVFMNEAMKAAIHGKAKTVITGEGIYENDRIFFDFKDFLFGGNVVGNVTGRVRIHSDFPGLLRKAQEPVIRAGMDKILGYDAATMKCKYEVDIREGTPALLKALEEVENVDCVKLVIKLNDY
# modifications: S-nitrosylation of Cys265 proposed from the electron density in the crystal (not detected in LuHNL solution)
# notes: Hydroxynitrile lyase from Linum usitatissimum, gene of GenBank AF024588.1 (protein AAB81956.1), which has Thr117; Each subunit holds one NAD+, two Zn2+ and one Mg2+; The gene was cloned between NdeI and BamHI of pET-15b; also called N-His-LuHNL; LuHNL-wild; source: SHuffle T7 Express E. coli, pET-15b, purified (Ni Sepharose, Mono Q)
# Legend:
# LuHNL [1] = biological target: T1, LuHNL (Linum usitatissimum, UniProt P93243, V117T); format: binding; design: E. coli SHuffle T7
# LuHNL [2] = biological target: T1, LuHNL
# LuHNL [3] = biological target: LuHNL (Linum usitatissimum, UniProt P93243, V117T/F340A)
# LuHNL [4] = biological target: T1, LuHNL; format: binding; design: E. coli SHuffle T7; remark: listed apart in the source
# LuHNL [5] = biological target: T1, LuHNL; format: binding; design: E. coli SHuffle T7; remark: listed apart in the source
# [6] = biological target: the molecule itself; assay: crystal structure; X-ray crystal structures of N-His-LuHNL (ligand-free with glycerol, soaked with acetone cyanohydrin, soaked with (rac)-2-butanone cyanohydrin); sitting drop, 20 °C, 0.1 M BIS-TRIS pH 6.5, 20% PEG MME 5,000; space group P2_(1), two dimers per asymmetric unit
molecule,measurement,setting,value
"CC[C@@](C)(O)C#N [(R)-BCN, (R)-2-butanone cyanohydrin]","X-ray crystal structure, 1.72 Å",LuHNL [1],(R)-2-butanone cyanohydrin (BCN) complexed LuHNL (LuHNL_BCN) were determined
"CC(C)(O)C#N [CNH, acetone cyanohydrin]",Km,LuHNL [2],2.7 ± 0.3 mM
same,Km,LuHNL [3],5.4 ± 2.3 mM
same,"X-ray crystal structure, 1.58 Å",LuHNL [4],The structures for acetone cyanohydrin (CNH) complexed LuHNL (LuHNL_CNH)
NC(=O)c1ccc[n+]([C@@H]2O[C@H](COP(=O)(O)OP(=O)(O)OC[C@H]3O[C@@H](n4cnc5c(N)ncnc54)[C@H](O)[C@@H]3O)[C@@H](O)[C@H]2O)c1 [NAD^+],"X-ray crystal structure, 1.48 Å; NAD+ quantitation",LuHNL [5],electron density of NAD^+ was observed in the crystal without the addition of exogenous NAD^+
B1,stoichiometry N,[6],2
